These compounds were tested against T1, MAGL (Homo sapiens, UniProt Q99685) (assay: MAGL inhibition, 2-AG assay (hydrolysis of 2-arachidonoylglycerol, arachidonic acid by mass spectrometry)). Settings: 2-AG assay (footnote [b]).
T1 sequence (Q99685 1-303): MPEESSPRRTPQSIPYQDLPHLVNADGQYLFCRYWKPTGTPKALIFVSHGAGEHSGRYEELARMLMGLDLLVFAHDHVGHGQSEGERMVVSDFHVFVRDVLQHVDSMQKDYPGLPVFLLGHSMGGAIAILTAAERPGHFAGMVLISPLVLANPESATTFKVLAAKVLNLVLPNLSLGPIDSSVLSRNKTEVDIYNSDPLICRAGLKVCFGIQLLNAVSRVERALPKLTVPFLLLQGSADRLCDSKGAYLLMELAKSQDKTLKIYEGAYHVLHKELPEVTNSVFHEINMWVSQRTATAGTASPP
Assay type: biochemical
How it was run: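 Human MAGL […] was preincubated 15 min at RT with compound ([…], 3-fold steps) in 50 mM Tris, 1 mM EDTA, 0.01% Tween. 2-AG (8 μM) was then added for 30 min at RT. Arachidonic acid was quantified by RapidFire SPE–triple quadrupole MS in negative ESI as its ratio to a d8-arachidonic acid standard.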

Question: Which IC50 does the source give for `O=C1CO[C@H]2CCN(C(=O)N3CCN(c4ccc(Br)cc4)CC3)C[C@H]2N1` [Example 168, (4aR,8aS)-6-(4-(4-Bromophenyl)piperazine-1-carbonyl)hexahydro-2H-pyrido[4,3-b][1,4]oxazin-3(4H)-one] here?
Answer: Its IC50 is 3700 nM.

Question: Which IC50 does the source give for `O=C1CO[C@H]2CCN(C(=O)N3CCC(c4ccc(-c5ccc(Cl)cc5Cl)cc4)CC3)C[C@H]2N1` [Example 169, (4aR,8aS)-6-(4-(2′,4′-Dichloro-[1,1′-biphenyl]-4-yl)piperidine-1-carbonyl)hexahydro-2H-pyrido[4,3-b][1,4]oxazin-3(4H)-one] here?
Answer: The IC50 was 4 nM.

Question: Which IC50 does the source give for `O=C1CO[C@H]2CCN(C(=O)N3CC(c4ccc(N5CC6CC6C5)cc4)C3)C[C@H]2N1` (stereo partly drawn) [Example 170, (4aR,8aS)-6-(3-(4-(3-Azabicyclo[3.1.0]hexan-3-yl)phenyl)azetidine-1-carbonyl)hexahydro-2H-pyrido[4,3-b][1,4]oxazin-3(4H)-one] here?
Answer: Its IC50 is 2 nM.

Question: With `O=C1CO[C@H]2CCN(C(=O)N3CC(c4cccc(OC(F)(F)F)c4)C3)C[C@H]2N1` [Example 171, (4aR,8aS)-6-(3-(3-(Trifluoromethoxy)phenyl)azetidine-1-carbonyl)hexahydro-2H-pyrido[4,3-b][1,4]oxazin-3(4H)-one] as the compound, how does the IC50 read?
Answer: The IC50 was 44 nM.

Question: `O=C1CO[C@H]2CCN(C(=O)N3CC(c4ccc(N5CC(OCC(F)(F)F)C5)cc4)C3)C[C@H]2N1` [Example 172, (4aR,8aS)-6-(3-(4-(3-(2,2,2-Trifluoroethoxy)azetidin-1-yl)phenyl)azetidine-1-carbonyl)hexahydro-2H-pyrido[4,3-b][1,4]oxazin-3(4H)-one] was tested. Which IC50 did it give?
Answer: The IC50 was 4 nM.

Question: For `CS(=O)(=O)c1cc(Cl)ccc1-c1ccc(C2CN(C(=O)N3CC[C@@H]4OCC(=O)N[C@@H]4C3)C2)cc1` [Example 173, (4aR,8aS)-6-(3-(4′-Chloro-2′-(methylsulfonyl)-[1,1′-biphenyl]-4-yl)azetidine-1-carbonyl)hexahydro-2H-pyrido[4,3-b][1,4]oxazin-3(4H)-one], which IC50 is on record?
Answer: Its IC50 is 0.4 nM.

Question: With `O=C1CO[C@H]2CCN(C(=O)N3CC(c4ccc(N5CCCC5C(F)(F)F)nc4)C3)C[C@H]2N1` (stereo partly drawn) [Example 174, (4aR,8aS)-6-(3-(6-(2-(Trifluoromethyl)pyrrolidin-1-yl)pyridin-3-yl)azetidine-1-carbonyl)hexahydro-2H-pyrido[4,3-b][1,4]oxazin-3(4H)-one] as the compound, how does the IC50 read?
Answer: Its IC50 is 7 nM.

Question: With `O=C1CO[C@H]2CCN(C(=O)N3CC(c4ccc(N5CCC6(CC6)C5)cc4)C3)C[C@H]2N1` [Example 179, (4aR,8aS)-6-(3-(4-(5-Azaspiro[2.4]heptan-5-yl)phenyl)azetidine-1-carbonyl)hexahydro-2H-pyrido[4,3-b][1,4]oxazin-3(4H)-one] as the compound, how does the IC50 read?
Answer: Its IC50 is 1 nM.

Question: How did the IC50 turn out when `O=C1CO[C@H]2CCN(C(=O)N3CC(c4ccc(S(F)(F)(F)(F)F)cc4)C3)C[C@H]2N1` [Example 180, (4aR,8aS)-6-(3-(4-(Pentafluoro-16-sulfaneyl)phenyl)azetidine-1-carbonyl)hexahydro-2H-pyrido[4,3-b][1,4]oxazin-3(4H)-one] was run?
Answer: The IC50 was 9 nM.

Question: `O=C1CO[C@H]2CCN(C(=O)N3CC(c4ccc(Cl)cn4)C3)C[C@H]2N1` [Example 181, (4aR,8aS)-6-(3-(5-Chloropyridin-2-yl)azetidine-1-carbonyl)hexahydro-2H-pyrido[4,3-b][1,4]oxazin-3(4H)-one] was tested. Which IC50 did it give?
Answer: The IC50 was 593 nM.

Question: `O=C1CO[C@H]2CCN(C(=O)N3CC(c4ccc(OC(F)(F)F)cc4F)C3)C[C@H]2N1` [Example 182, (4aR,8aS)-6-(3-(2-Fluoro-4-(trifluoromethoxy)phenyl)azetidine-1-carbonyl)hexahydro-2H-pyrido[4,3-b][1,4]oxazin-3(4H)-one] was tested. Which IC50 did it give?
Answer: Its IC50 is 8 nM.

Question: `COc1ccc(C2CN(C(=O)N3CC[C@@H]4OCC(=O)N[C@@H]4C3)C2)cn1` [Example 183, (4aR,8aS)-6-[3-(6-Methoxypyridin-3-yl)azetidine-1-carbonyl]-4,4a,5,7,8,8a-hexahydropyrido[4,3-b][1,4]oxazin-3-one] was tested. Which IC50 did it give?
Answer: The IC50 was 1600 nM.

Question: For `O=C1CO[C@H]2CCN(C(=O)N3CCC(c4ccc(Br)cc4)C3)C[C@H]2N1` (stereo partly drawn) [Example 184, (4aR,8aS)-6-(3-(4-Bromophenyl)pyrrolidine-1-carbonyl)hexahydro-2H-pyrido[4,3-b][1,4]oxazin-3(4H)-one], which IC50 is on record?
Answer: The IC50 was 146 nM.

Question: How did the IC50 turn out when `O=C1CO[C@H]2CCN(C(=O)N3CC(c4ccccc4)C3)C[C@H]2N1` [Example 185, (4aR,8aS)-6-(3-Phenylazetidine-1-carbonyl)hexahydro-2H-pyrido[4,3-b][1,4]oxazin-3(4H)-one] was run?
Answer: The IC50 was 139 nM.

Question: Which IC50 does the source give for `O=C1CO[C@H]2CCN(C(=O)N3CCC(c4ccccc4)CC3)C[C@H]2N1` [Example 186, (4aR,8aS)-6-(4-Phenylpiperidine-1-carbonyl)hexahydro-2H-pyrido[4,3-b][1,4]oxazin-3(4H)-one] here?
Answer: Its IC50 is 1000 nM.

Question: With `O=C1CO[C@H]2CCN(C(=O)N3CC(c4ccc(CC(F)(F)F)cc4)C3)C[C@H]2N1` [Example 187, (4aR,8aS)-6-[3-[4-(2,2,2-Trifluoroethyl)phenyl]azetidine-1-carbonyl]-4,4a,5,7,8,8a-hexahydropyrido[4,3-b][1,4]oxazin-3-one] as the compound, how does the IC50 read?
Answer: Its IC50 is 1 nM.

Question: How did the IC50 turn out when `O=C1CO[C@H]2CCN(C(=O)N3CC(c4ccc(C5(C(F)(F)F)CC5)cc4)C3)C[C@H]2N1` [Example 188, (4aR,8aS)-6-[3-[4-[1-(Trifluoromethyl)cyclopropyl]phenyl]azetidine-1-carbonyl]-4,4a,5,7,8,8a-hexahydropyrido[4,3-b][1,4]oxazin-3-one] was run?
Answer: Its IC50 is 4 nM.

Question: For `O=C1CO[C@H]2CCN(C(=O)N3CC(c4ccc(N5CC6(C5)CC(F)(F)C6)cc4)C3)C[C@H]2N1` [Example 191, (4aR,8aS)-6-[3-[4-(6,6-Difluoro-2-azaspiro[3.3]heptan-2-yl)phenyl]azetidine-1-carbonyl]-4,4a,5,7,8,8a-hexahydropyrido[4,3-b][1,4]oxazin-3-one], which IC50 is on record?
Answer: Its IC50 is 0.5 nM.

Question: How did the IC50 turn out when `O=C1CO[C@H]2CCN(C(=O)N3CC(c4ccc(N5CC6CCC(C5)O6)cc4)C3)C[C@H]2N1` [Example 192, (4aR,8aS)-6-(3-(4-(8-Oxa-3-azabicyclo[3.2.1]octan-3-yl)phenyl)azetidine-1-carbonyl)hexahydro-2H-pyrido[4,3-b][1,4]oxazin-3(4H)-one] was run?
Answer: Its IC50 is 8 nM.

Question: For `O=C1CO[C@H]2CCN(C(=O)N3CC(c4ccc(-c5ccc(Cl)cc5Cl)cn4)C3)C[C@H]2N1` [Example 193, (4aR,8aS)-6-(3-(5-(2,4-Dichlorophenyl)pyridin-2-yl)azetidine-1-carbonyl)hexahydro-2H-pyrido[4,3-b][1,4]oxazin-3(4H)-one], which IC50 is on record?
Answer: Its IC50 is 1 nM.

Question: How did the IC50 turn out when `O=C1CO[C@H]2CCN(C(=O)N3CC(c4ccc(N5CCCCC5)cc4)C3)C[C@H]2N1` [Example 196, (4aR,8aS)-6-[3-[4-(1-Piperidyl)phenyl]azetidine-1-carbonyl]-4,4a,5,7,8,8a-hexahydropyrido[4,3-b][1,4]oxazin-3-one] was run?
Answer: Its IC50 is 2 nM.

Question: Which IC50 does the source give for `CC1(O)CN(c2ccc(C3CN(C(=O)N4CC[C@@H]5OCC(=O)N[C@@H]5C4)C3)cc2)C1` [Example 199, (4aR,8aS)-6-[3-[4-(3-Hydroxy-3-methylazetidin-1-yl)phenyl]azetidine-1-carbonyl]-4,4a,5,7,8,8a-hexahydropyrido[4,3-b][1,4]oxazin-3-one] here?
Answer: The IC50 was 278 nM.

Question: Which IC50 does the source give for `CC1(F)CN(c2ccc(C3CN(C(=O)N4CC[C@@H]5OCC(=O)N[C@@H]5C4)C3)cc2)C1` [Example 200, (4aR,8aS)-6-[3-[4-(3-Fluoro-3-methyl-azetidin-1-yl)phenyl]azetidine-1-carbonyl]-4,4a,5,7,8,8a-hexahydropyrido[4,3-b][1,4]oxazin-3-one] here?
Answer: Its IC50 is 14 nM.

Question: With `O=C1CO[C@H]2CCN(C(=O)N3CC(c4ccc(N5CC(F)C5)cc4)C3)C[C@H]2N1` [Example 201, (4aR,8aS)-6-(3-(4-(3-Fluoroazetidin-1-yl)phenyl)azetidine-1-carbonyl)hexahydro-2H-pyrido[4,3-b][1,4]oxazin-3(4H)-one] as the compound, how does the IC50 read?
Answer: Its IC50 is 101 nM.

Question: For `O=C1CO[C@H]2CCN(C(=O)N3CC(c4ccc(OC(F)(F)F)c(F)c4)C3)C[C@H]2N1` [Example 202, (4aR,8aS)-6-(3-(3-Fluoro-4-(trifluoromethoxy)phenyl)azetidine-1-carbonyl)hexahydro-2H-pyrido[4,3-b][1,4]oxazin-3(4H)-one], which IC50 is on record?
Answer: Its IC50 is 12 nM.

Question: How did the IC50 turn out when `Cc1cc(C2CN(C(=O)N3CC[C@@H]4OCC(=O)N[C@@H]4C3)C2)ccc1OC(F)(F)F` [Example 203, (4aR,8aS)-6-(3-(3-Methyl-4-(trifluoromethoxy)phenyl)azetidine-1-carbonyl)hexahydro-2H-pyrido[4,3-b][1,4]oxazin-3(4H)-one] was run?
Answer: The IC50 was 0.8 nM.

Question: For `O=C1CO[C@H]2CCN(C(=O)N3CC(c4cc(F)c(OC(F)(F)F)c(F)c4)C3)C[C@H]2N1` [Example 204, (4aR,8aS)-6-(3-(3,5-Difluoro-4-(trifluoromethoxy)phenyl)azetidine-1-carbonyl)hexahydro-2H-pyrido[4,3-b][1,4]oxazin-3(4H)-one], which IC50 is on record?
Answer: The IC50 was 10 nM.

Question: With `O=C1CO[C@H]2CCN(C(=O)N3CC(c4ccc(OC(F)(F)F)cc4Cl)C3)C[C@H]2N1` [Example 205, (4aR,8aS)-6-(3-(2-Chloro-4-(trifluoromethoxy)phenyl)azetidine-1-carbonyl)hexahydro-2H-pyrido[4,3-b][1,4]oxazin-3(4H)-one] as the compound, how does the IC50 read?
Answer: The IC50 was 18 nM.
